The conditions of this data set: for aqueous solubility: pH 6.8.

Structures are written as SMILES. In brackets after ≈: the same amount, converted by molar mass.

The values that follow come from the Biogen ADME set (Fang et al. 2023).

In the case of `CC(=O)N1c2ccc(S(=O)(=O)Nc3cccc(-c4cnco4)c3)cc2CC1C` (centres undefined), the MDR1-MDCK efflux ratio turned out to be 11.5; the intrinsic clearance, human liver microsomes was 67.6 mL/min/kg; the intrinsic clearance, rat liver microsomes came to 274 mL/min/kg.
The like results for `CCCN(CCc1cccs1)[C@H]1CCc2c(O)cccc2C1` were, in that order, 0.512, 98.1 mL/min/kg and 3810 mL/min/kg.
As a reminder, the aqueous solubility is the dissolved amount per volume that the medium holds. Consider `O=C(Cc1csc(-c2ccc(F)c(F)c2)n1)NCC(F)(F)F`, for which the aqueous solubility amounted to 0.36 µg/mL (≈ 1.07 µM).
For the molecule `COc1ccc(NS(=O)(=O)c2ccc3c(c2)n(C)c(=O)n3C)cc1`, the aqueous solubility was 2.05 µg/mL (≈ 5.9 µM). Against the preceding molecule, the aqueous solubility is about 5.7-fold higher.
Consider `O=C(CN1CCOC(c2ccc(F)cc2)C1)Nc1ccccc1OC(F)F` (centres undefined), for which the MDR1-MDCK efflux ratio was 0.589; the intrinsic clearance, human liver microsomes was determined as 93.6 mL/min/kg; the intrinsic clearance, rat liver microsomes came to 566 mL/min/kg; the aqueous solubility came to 23.1 µg/mL (≈ 60.7 µM).
Turning to `O=c1c2cc(OCc3ccc(Cl)cc3)ccc2nc2n1CCCCC2`, the MDR1-MDCK efflux ratio was found to be 0.969 and the aqueous solubility worked out at 0.38 µg/mL (≈ 1.07 µM).
On to `Cc1ccccc1CCNC(=O)N(Cc1cccnc1)C1CCN(C)CC1`, for which the MDR1-MDCK efflux ratio came to 55.7; the intrinsic clearance, human liver microsomes was found to be 20.4 mL/min/kg; the intrinsic clearance, rat liver microsomes stood at 815 mL/min/kg.
In the case of `O=c1c2cnccc2ncn1Cc1ccc2c(c1)CCCO2`, the MDR1-MDCK efflux ratio stood at 0.724; the intrinsic clearance, human liver microsomes was found to be 45.9 mL/min/kg; the intrinsic clearance, rat liver microsomes came out at 281 mL/min/kg.
Take `OCC1CCCCN1Cc1ccc(Cl)c(Cl)c1` (centres undefined): the MDR1-MDCK efflux ratio turned out to be 0.524; the fraction unbound, human plasma stood at 0.246; the fraction unbound, rat plasma is 0.305; the intrinsic clearance, human liver microsomes was at most 4.74 mL/min/kg. The molecule also displayed an intrinsic clearance, rat liver microsomes of 299 mL/min/kg and an aqueous solubility of 42 µg/mL (≈ 153 µM).
Consider `O=C(c1ccc(F)c(F)c1)N1CCN(C(=O)c2nc(Cl)ccc2Cl)CC1`, for which the MDR1-MDCK efflux ratio came out at 4.42; the intrinsic clearance, human liver microsomes was at most 4.74 mL/min/kg; the intrinsic clearance, rat liver microsomes came out at 23.3 mL/min/kg; the aqueous solubility came out at 61.7 µg/mL (≈ 154 µM).
For the molecule `Cc1cccc(C)c1NCc1noc(C2CC2)n1`, the intrinsic clearance, human liver microsomes turned out to be 203 mL/min/kg and the intrinsic clearance, rat liver microsomes worked out at 1540 mL/min/kg.
Take `Clc1ccc(Cc2nc(-c3cccnc3)no2)cc1`: the MDR1-MDCK efflux ratio amounted to 0.458; the intrinsic clearance, human liver microsomes amounted to 26.9 mL/min/kg; the intrinsic clearance, rat liver microsomes was 219 mL/min/kg; the aqueous solubility was found to be 16.5 µg/mL (≈ 60.7 µM).
For the molecule `Cc1cccc(NC(=O)N2CCC(N3CC=CC3)CC2)c1Cl`, the MDR1-MDCK efflux ratio worked out at 0.517; the intrinsic clearance, human liver microsomes came out at 9.11 mL/min/kg; the intrinsic clearance, rat liver microsomes was 1040 mL/min/kg.
On to `CCn1cc(NC(=O)c2ccccc2C)cn1`, for which the MDR1-MDCK efflux ratio came out at 0.593; the intrinsic clearance, human liver microsomes worked out at 7.18 mL/min/kg; the intrinsic clearance, rat liver microsomes was at most 10.7 mL/min/kg; the aqueous solubility was 32.2 µg/mL (≈ 140 µM).
In turn, `Cc1ccc(F)c(N(C#N)Cc2nnc(C)o2)c1` displayed an aqueous solubility of 44.6 µg/mL (≈ 181 µM).
Consider `COc1ccc(CCC(=O)N2CCN(C(=O)c3cc4n(n3)CCCC4)CC2)cc1`, for which the MDR1-MDCK efflux ratio worked out at 5.94; the intrinsic clearance, human liver microsomes is 16.3 mL/min/kg; the intrinsic clearance, rat liver microsomes is 867 mL/min/kg; the aqueous solubility stood at 83.4 µg/mL (≈ 210 µM).
Take `Cc1ccc(CNC(=O)c2cccs2)cn1`: the MDR1-MDCK efflux ratio was 0.842; the intrinsic clearance, human liver microsomes is at most 4.74 mL/min/kg; the intrinsic clearance, rat liver microsomes was at most 10.7 mL/min/kg; the aqueous solubility was found to be 52.3 µg/mL (≈ 225 µM).
The like results for `CC(=O)Nc1ccc2nc(C)cc(O)c2c1` were, in that order, 1.55, at most 4.74 mL/min/kg, at most 10.7 mL/min/kg and 38.7 µg/mL (≈ 179 µM).
For `C#CCNC(=O)c1ccc2c(c1)OCO2`, in that order: 0.809, 14 mL/min/kg, 34.4 mL/min/kg and 26 µg/mL (≈ 128 µM).
For `Cc1nc2cc(NC(=O)CCc3c(C)noc3C)ccc2o1`, the MDR1-MDCK efflux ratio came to 4.62; the intrinsic clearance, human liver microsomes was at most 4.74 mL/min/kg; the intrinsic clearance, rat liver microsomes is 78.5 mL/min/kg; the aqueous solubility worked out at 39.1 µg/mL (≈ 131 µM).
For `NC[C@H]1CC[C@@H](C(=O)Nc2ccc3[nH]ncc3c2)O1`, the MDR1-MDCK efflux ratio came out at 1.14; the fraction unbound, human plasma was 0.959; the intrinsic clearance, human liver microsomes is 17.7 mL/min/kg.
Turning to `CN(c1ncc(F)cn1)[C@H]1CCCNC1`, the MDR1-MDCK efflux ratio came to 0.438; the fraction unbound, human plasma is 1; the fraction unbound, rat plasma was determined as 1; the intrinsic clearance, human liver microsomes is at most 4.74 mL/min/kg. The molecule further yielded an intrinsic clearance, rat liver microsomes of at most 10.7 mL/min/kg.
Take `CCc1ccccc1NC(=O)CCn1ccnc1-c1ccc2c(c1)OCO2`: the MDR1-MDCK efflux ratio was determined as 22.1; the intrinsic clearance, human liver microsomes came to 126 mL/min/kg; the intrinsic clearance, rat liver microsomes turned out to be 891 mL/min/kg; the aqueous solubility came to 42 µg/mL (≈ 116 µM).
`COc1ccc(-c2cccc(C3CCCN(CC(=O)Nc4ccccn4)C3)n2)cc1` (centres undefined): the MDR1-MDCK efflux ratio turned out to be 0.833; the intrinsic clearance, human liver microsomes worked out at 131 mL/min/kg; the intrinsic clearance, rat liver microsomes is 2220 mL/min/kg; the aqueous solubility stood at 8.1 µg/mL (≈ 20.1 µM).
Take `Cc1ccc2c(c1)C(=O)CC1(CCN(C(=O)c3ccc4nc(C)cc(O)c4c3)CC1)O2`: the MDR1-MDCK efflux ratio turned out to be 30.1; the intrinsic clearance, human liver microsomes came to 18.4 mL/min/kg; the intrinsic clearance, rat liver microsomes came out at 119 mL/min/kg; the aqueous solubility amounted to 20.2 µg/mL (≈ 48.5 µM).
As to `Cn1cnnc1CCn1ccnc1-c1cc2ccccc2s1`, the MDR1-MDCK efflux ratio came to 134; the intrinsic clearance, human liver microsomes was at most 4.74 mL/min/kg; the intrinsic clearance, rat liver microsomes amounted to 25.3 mL/min/kg; the aqueous solubility is 33 µg/mL (≈ 106 µM).
On to `CC(C)c1cc(N(C)Cc2nc(C3CC3)n[nH]2)n[nH]1`, for which the MDR1-MDCK efflux ratio worked out at 16.1; the intrinsic clearance, human liver microsomes is at most 4.74 mL/min/kg; the intrinsic clearance, rat liver microsomes was 36.7 mL/min/kg.
`O=c1[nH]c2cc3ccccc3c(=O)n2c2sc3c(c12)CCCC3` returned an aqueous solubility of 15.2 µg/mL (≈ 47 µM).
Regarding `O=C(COc1ccc(F)cc1F)N1CCNC1=O`, the aqueous solubility came to 97 µg/mL (≈ 379 µM).
`Cc1ccc(S(=O)(=O)Nc2ccc3c(c2)c2c(n3S(=O)(=O)c3ccc(C)cc3)CCC2)cc1` yielded an intrinsic clearance, human liver microsomes of 230 mL/min/kg and an intrinsic clearance, rat liver microsomes of 1490 mL/min/kg.
For `Fc1ccccc1-c1c[nH]nc1C1CCCN1Cc1ccc2ncccc2c1` (centres undefined), the MDR1-MDCK efflux ratio came out at 2.26; the fraction unbound, human plasma stood at 0.0351; the fraction unbound, rat plasma is 0.0289; the intrinsic clearance, human liver microsomes is 400 mL/min/kg. Besides, the intrinsic clearance, rat liver microsomes came out at 1630 mL/min/kg and the aqueous solubility came to 29.2 µg/mL (≈ 78.4 µM).
For the molecule `O=C(NCCc1cnn[nH]1)C1Cc2ccccc2C1`, the MDR1-MDCK efflux ratio is 2.47; the intrinsic clearance, human liver microsomes was at most 4.74 mL/min/kg; the intrinsic clearance, rat liver microsomes is at most 10.7 mL/min/kg.
`CCN1C(=O)C(=O)N(Cc2sc3ccccc3c2Cl)C1=O`: the aqueous solubility was 0.3 µg/mL (≈ 0.929 µM).
`CCN(C/C=C\c1ccc(C2CCCCC2)c(Cl)c1)C1CCCCC1` came in with a fraction unbound, human plasma of 0.0014; a fraction unbound, rat plasma of 0.00541; an intrinsic clearance, human liver microsomes of 47.5 mL/min/kg; an intrinsic clearance, rat liver microsomes of 591 mL/min/kg. The aqueous solubility stood at 6.6 µg/mL (≈ 18.3 µM).
The molecule `CCCCCCCCc1ccc2c(c1)CC[C@@H](C(N)(CO)CO)C2` had an aqueous solubility of 0.81 µg/mL (≈ 2.43 µM).
Molecule `O=C(NC[C@]1(O)CCN(Cc2cccs2)C[C@H]1O)c1c[nH]cn1` gave an intrinsic clearance, human liver microsomes of at most 4.74 mL/min/kg and an intrinsic clearance, rat liver microsomes of at most 10.7 mL/min/kg.
As to `CCCc1cc(CNS(=O)(=O)c2cc(-c3cnc(C)o3)ccc2C)on1`, the MDR1-MDCK efflux ratio came to 7.7; the intrinsic clearance, human liver microsomes amounted to 392 mL/min/kg; the intrinsic clearance, rat liver microsomes was found to be 2500 mL/min/kg.
The like results for `c1cc(-c2nnc(NCc3cncs3)o2)ccn1` were, in that order, 1.9, at most 4.74 mL/min/kg and 91.4 mL/min/kg.
For `OCc1cnnn1-c1cncc(Cl)n1`, in that order: 0.648, at most 4.74 mL/min/kg and at most 10.7 mL/min/kg.
For `NS(=O)(=O)OC[C@@H]1C[C@@H](n2ccc3c(N[C@H]4CCc5ccccc54)ncnc32)C[C@@H]1O`, the MDR1-MDCK efflux ratio was found to be 51.9; the intrinsic clearance, human liver microsomes amounted to 40.9 mL/min/kg; the intrinsic clearance, rat liver microsomes came to 680 mL/min/kg; the aqueous solubility was 44.4 µg/mL (≈ 100 µM).
The like results for `Cc1ccc(C(=O)O)cc1NS(=O)(=O)c1csc(C(=O)Nc2ccccc2)c1` were, in that order, 0.879, at most 4.74 mL/min/kg, at most 10.7 mL/min/kg and 61.5 µg/mL (≈ 148 µM).
In the case of `CCCCN1CCN(C(=O)c2cccc(-c3ccc(CO)cc3)c2)CC1`, the MDR1-MDCK efflux ratio is 1.13; the intrinsic clearance, human liver microsomes is 26.6 mL/min/kg; the intrinsic clearance, rat liver microsomes was found to be 269 mL/min/kg.
With `CC1(C)Cc2cc(NC(=O)c3cnn4cccnc34)c(N3CCN(CC(F)F)CC3)nc2O1`, the MDR1-MDCK efflux ratio worked out at 7.71; the intrinsic clearance, human liver microsomes was determined as 18.6 mL/min/kg; the intrinsic clearance, rat liver microsomes is 121 mL/min/kg; the aqueous solubility worked out at 76.9 µg/mL (≈ 168 µM).
For `O=C(Nc1nc2ccccc2[nH]1)C1CC1c1ccccc1` (centres undefined), the aqueous solubility amounted to 1.1 µg/mL (≈ 3.97 µM).
For `CC(C)c1ccccc1OC(=O)NCCc1ccc2ccccc2c1`, the MDR1-MDCK efflux ratio stood at 0.492 and the aqueous solubility is 0.71 µg/mL (≈ 2.13 µM).
On to `Cc1csc(N(C(=O)c2cc3c(C)nn(C)c3s2)C2CC2)n1`, for which the MDR1-MDCK efflux ratio is 0.642; the intrinsic clearance, human liver microsomes was 121 mL/min/kg; the intrinsic clearance, rat liver microsomes amounted to 255 mL/min/kg; the aqueous solubility is 57.3 µg/mL (≈ 172 µM).
`O=c1[nH]c2ccccc2n1C1CCN(Cc2nc(-c3cccs3)no2)CC1` showed an intrinsic clearance, human liver microsomes of 11.4 mL/min/kg and an intrinsic clearance, rat liver microsomes of 234 mL/min/kg.
In the case of `COc1cc(OC)cc(-c2c(C)ncnc2OC)c1`, the MDR1-MDCK efflux ratio stood at 0.749; the intrinsic clearance, human liver microsomes is at most 4.74 mL/min/kg; the intrinsic clearance, rat liver microsomes stood at 107 mL/min/kg.
